Assay results reported in patent US8957061B2, “Azetidine derivatives as sphingosine 1-phosphate (S1P) receptor modulators” (Allergan, Inc., priority 2013, dated 2015).

Target: T1, human S1P1 receptor (Homo sapiens, UniProt P21453)
T1 construct: expressed in transfected cells; membranes used
Assay: GTP γ35S binding assay for S1P1 activity
Format: biochemical
Settings: activity potency, S1P1 receptor from GTP γ35S; membranes of cells stably expressing the S1P1 receptor; test concentrations 0.08 to 5,000 nM
Description: Compounds were synthesized and tested for S1P1 activity using the GTP γ^35S binding assay. These compounds may be assessed for their ability to activate or block activation of the human S1P1 receptor in cells stably expressing the S1P1 receptor. GTP γ^35S binding was measured in the medium containing (mM) HEPES 25, pH 7.4, MgCl2 10, NaCl 100, dithiothreitol 0.5, digitonin 0.003%, 0.2 nM GTP γ^35S, and 5 μg membrane protein in a volume of 150 μl. Test compounds were included in the concentration range from 0.08 to 5,000 nM unless indicated otherwise. Membranes were incubated with 100 μM 5′-adenylylimidodiphosphate for 30 min, and subsequently with 10 μM GDP for 10 min on ice. Drug solutions and membrane were mixed, and then reactions were initiated by adding GTP γ^35S and continued for 30 min at 25° C. Reaction mixtures were filtered over Whatman GF/B filters under vacuum, and washed three times with 3 mL of ice-cold buffer (HEPES 25, pH7.4, MgCl2 10 and NaCl 100). Filters were dried and mixed with scintillant, and counted for ^35S activity using a β-counter. Agonist-induced GTP γ^35S binding was obtained by subtracting that in the absence of agonist. Binding data were analyzed using a non-linear regression method.

T1 sequence (P21453 whole entry): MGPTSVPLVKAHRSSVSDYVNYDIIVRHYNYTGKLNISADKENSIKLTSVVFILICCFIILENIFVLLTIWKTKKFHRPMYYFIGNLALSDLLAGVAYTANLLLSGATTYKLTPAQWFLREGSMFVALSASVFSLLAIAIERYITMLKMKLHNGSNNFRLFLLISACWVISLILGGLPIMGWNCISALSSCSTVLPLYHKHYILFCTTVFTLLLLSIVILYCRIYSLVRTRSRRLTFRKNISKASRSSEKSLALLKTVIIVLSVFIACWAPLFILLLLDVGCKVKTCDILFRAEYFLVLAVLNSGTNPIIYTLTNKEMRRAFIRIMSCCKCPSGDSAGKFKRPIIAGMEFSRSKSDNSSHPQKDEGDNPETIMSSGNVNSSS

EC50: 121 nM
Compound: Cc1ccc(CC(CCC[S+]([O-])c2ccc(CN3CC(C(=O)O)C3)cc2)c2cccc(Cl)c2)cc1C (stereo not shown) [Compound 1, 1-(4-{[4-(3-Chlorophenyl)-5-(3,4-dimethylphenyl)pentyl]sulfinyl}benzyl)azetidine-3-carboxylic acid]
